From the supplement of paper PMC11208160

Test: recombinant barcode read abundance after kanamycin selection (control-corrected) (log10(CPM+1)); higher = more efficient recombination; sequences stand for … in AGTGCAGAGAAAATCGGCCAGTTTTCTCTGCCTGCAGTCCGCATGCCGT…AGATTTATGCAGCGGACTGCCTTTCTCCCAAAGTGATAAACCGGACAGTATCATGGACCGGTTTTCCCGGTAATCCGTATTTGCAAGGTTGGTTTCACT; site = the 11-nt target
Protocol: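 Pooled E. coli target-specificity screen for the IS621 bridge recombinase. Each library plasmid pairs an 11-nt target (CT core) with a bridge RNA whose target-binding loop (9-nt LTG + 4-nt RTG) is reprogrammed; the rest of the 177-nt WT IS621 bridge RNA scaffold is fixed. The plasmid is co-electroporated with a WT donor plasmid; recombinase is induced with 0.1 mM IPTG and recombinants are selected on kanamycin. Recombinant barcodes are sequenced, converted to CPM, averaged over two biological replicates and corrected by the unselected control CPM. Molecule = full bridge RNA written as DNA: LTG = specificity nt 1-9, RTG = reverse complement of specificity nt 8-11, in the WT scaffold.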
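Note: IS621 recombinase and bridge RNA in Escherichia coli cells.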

First: ACATAAGCTTGGGTTCTAACCTGTTGCCT (site ACATAAGCTAG)
Second: ACATAAGCTTGGGTTCTAACCTGTTGCCT (site CATCGGACTCT)
The “recombinant barcode read abundance (log10)” value of the first is higher: 1.1 for the first, 0.116 for the second.

“ACATATACTTGGGTTCTAACCTGTTGCTT (site ACATATACTAA)” and “ACATATACTTGGGTTCTAACCTGTTGCTT (site CGTAGCCCTCC)” are within 0.2 log units of each other in “recombinant barcode read abundance (log10)” value: 0.0772 for the first, 0.125 for the second.

Compared with “ACATGAACTTGGGTTCTAACCTGTTGCAT (site ACATGAACTAT)”, “ACATGAACTTGGGTTCTAACCTGTTGCAT (site ACATGCACTAT)” is lower in “recombinant barcode read abundance (log10)” value: 1.38 for the first, 0.111 for the second.

“ACATGAACTTGGGTTCTAACCTGTTGCAT (site ACATGGACTAT)” and “ACATGAACTTGGGTTCTAACCTGTTGCAT (site ACATGTACTAT)” are within 0.2 log units of each other in “recombinant barcode read abundance (log10)” value: 0.141 for the first, 0.0493 for the second.

“ACATGACCTTGGGTTCTAACCTGTTGCTT (site ACATGACCTAA)” and “ACATGACCTTGGGTTCTAACCTGTTGCTT (site ATATGAGCTAA)” are within 0.2 log units of each other in “recombinant barcode read abundance (log10)” value: 0.223 for the first, 0.0302 for the second.

Compared with “ACATGGGCTTGGGTTCTAACCTGTTGCCG (site ACATGGGCTCG)”, “ACATGGGCTTGGGTTCTAACCTGTTGCCG (site ACATGTGCTCT)” is lower in “recombinant barcode read abundance (log10)” value: 0.695 for the first, 0.266 for the second.

Compared with “ACATGTCCTTGGGTTCTAACCTGTTGCGT (site ACATGTCCTAA)”, “ACATGTCCTTGGGTTCTAACCTGTTGCGT (site ACATGTCCTAC)” is higher in “recombinant barcode read abundance (log10)” value: 0.141 for the first, 2.39 for the second.

Going from “ACATGTCCTTGGGTTCTAACCTGTTGCGT (site ACATGTCCTAG)” to “ACATGTCCTTGGGTTCTAACCTGTTGCGT (site ACATGTCCTAT)”, the “recombinant barcode read abundance (log10)” value rises from 0.23 to 1.48.

First: ACATGTGCTTGGGTTCTAACCTGTTGCAG (site ACATGGGCTCG)
Second: ACATGTGCTTGGGTTCTAACCTGTTGCAG (site ACATGTGCTCT)
The “recombinant barcode read abundance (log10)” value of the first is lower: 0.0637 for the first, 1.72 for the second.

Going from “ACATTAGCTTGGGTTCTAACCTGTTGCAA (site ACATTAGCTTT)” to “ACATTAGCTTGGGTTCTAACCTGTTGCAA (site ACTTTAGCTCT)”, the “recombinant barcode read abundance (log10)” value falls from 0.609 to 0.0541.

“ACCAAATCTTGGGTTCTAACCTGTTGCTA (site ACCAAATCTCG)” and “ACCAAATCTTGGGTTCTAACCTGTTGCTA (site ACCAAATCTTA)” are within 0.2 log units of each other in “recombinant barcode read abundance (log10)” value: 0.356 for the first, 0.23 for the second.

Going from “ACCAAGTCTTGGGTTCTAACCTGTTGCGT (site ACCAAGTCTAC)” to “ACCAAGTCTTGGGTTCTAACCTGTTGCGT (site ACCAAGTCTGC)”, the “recombinant barcode read abundance (log10)” value falls from 1.98 to 0.326.

“ACCAATACTTGGGTTCTAACCTGTTGCCT (site ACCAATACTAG)” and “ACCAATACTTGGGTTCTAACCTGTTGCCT (site ACCAATCCTAG)” are within 0.2 log units of each other in “recombinant barcode read abundance (log10)” value: 0.0309 for the first, 0.122 for the second.

Compared with “ACCAATACTTGGGTTCTAACCTGTTGCCT (site ACCAATGCTAG)”, “ACCAATACTTGGGTTCTAACCTGTTGCCT (site ACCAATTCTAG)” is lower in “recombinant barcode read abundance (log10)” value: 0.939 for the first, 0.0138 for the second.

“ACCAATGCTTGGGTTCTAACCTGTTGCCT (site ACCAATACTAG)” and “ACCAATGCTTGGGTTCTAACCTGTTGCCT (site ACCAATCCTAG)” are within 0.2 log units of each other in “recombinant barcode read abundance (log10)” value: 0.182 for the first, 0.136 for the second.

“ACCAATGCTTGGGTTCTAACCTGTTGCCT (site ACCAATGCTAG)” and “ACCAATGCTTGGGTTCTAACCTGTTGCCT (site ACCAATTCTAG)” are within 0.2 log units of each other in “recombinant barcode read abundance (log10)” value: 0.0431 for the first, 0.163 for the second.

“ACCAATTCTTGGGTTCTAACCTGTTGCCT (site ACCAATACTAG)” and “ACCAATTCTTGGGTTCTAACCTGTTGCCT (site ACCAATCCTAG)” are within 0.2 log units of each other in “recombinant barcode read abundance (log10)” value: 0.059 for the first, 0.111 for the second.

Going from “ACCAATTCTTGGGTTCTAACCTGTTGCCT (site ACCAATGCTAG)” to “ACCAATTCTTGGGTTCTAACCTGTTGCCT (site ACCAATTCTAG)”, the “recombinant barcode read abundance (log10)” value rises from 0.0727 to 0.483.

First: ACCCAACCTTGGGTTCTAACCTGTTGCCT (site ACCCAAACTAG)
Second: ACCCAACCTTGGGTTCTAACCTGTTGCCT (site ACCCAACCTAG)
The “recombinant barcode read abundance (log10)” value of the first is lower: 0.242 for the first, 1.58 for the second.

“ACCCAACCTTGGGTTCTAACCTGTTGCCT (site ACCCAAGCTAG)” and “ACCCAACCTTGGGTTCTAACCTGTTGCCT (site ACCCAATCTAG)” are within 0.2 log units of each other in “recombinant barcode read abundance (log10)” value: 0.104 for the first, 0.0366 for the second.

“ACCCAATCTTGGGTTCTAACCTGTTGCCT (site ACCCAAACTAG)” and “ACCCAATCTTGGGTTCTAACCTGTTGCCT (site ACCCAACCTAG)” are within 0.2 log units of each other in “recombinant barcode read abundance (log10)” value: 0.266 for the first, 0.0978 for the second.

Compared with “ACCCAATCTTGGGTTCTAACCTGTTGCCT (site ACCCAAGCTAG)”, “ACCCAATCTTGGGTTCTAACCTGTTGCCT (site ACCCAATCTAG)” is higher in “recombinant barcode read abundance (log10)” value: 0.207 for the first, 1.47 for the second.

Going from “ACCCACACTTGGGTTCTAACCTGTTGCCG (site ACCCACACTCG)” to “ACCCACACTTGGGTTCTAACCTGTTGCCG (site TCCCACACTTG)”, the “recombinant barcode read abundance (log10)” value falls from 1.8 to 0.111.

Going from “ACCGAGACTTGGGTTCTAACCTGTTGCGG (site ACCGAGACTCC)” to “ACCGAGACTTGGGTTCTAACCTGTTGCGG (site AGTGAGACTCC)”, the “recombinant barcode read abundance (log10)” value falls from 2.7 to 0.0628.

First: ACCGAGTCTTGGGTTCTAACCTGTTGCCT (site AACGAGTCTAG)
Second: ACCGAGTCTTGGGTTCTAACCTGTTGCCT (site ACCGAGTCTAG)
The “recombinant barcode read abundance (log10)” value of the first is lower: 0.202 for the first, 1.85 for the second.

Compared with “ACCGAGTCTTGGGTTCTAACCTGTTGCCT (site AGCGAGTCTAG)”, “ACCGAGTCTTGGGTTCTAACCTGTTGCCT (site ATCGAGTCTAG)” is higher in “recombinant barcode read abundance (log10)” value: 0.164 for the first, 0.387 for the second.

“ACCGCTACTTGGGTTCTAACCTGTTGCCT (site ACCGCTACTAG)” and “ACCGCTACTTGGGTTCTAACCTGTTGCCT (site AGCGCTACTAG)” are within 0.2 log units of each other in “recombinant barcode read abundance (log10)” value: 0.176 for the first, 0.0813 for the second.

“ACCGGGACTTGGGTTCTAACCTGTTGCCT (site ACCGAGACTAG)” and “ACCGGGACTTGGGTTCTAACCTGTTGCCT (site ACCGCGACTAG)” are within 0.2 log units of each other in “recombinant barcode read abundance (log10)” value: 0.285 for the first, 0.159 for the second.

Going from “ACCGGGACTTGGGTTCTAACCTGTTGCCT (site ACCGGGACTAG)” to “ACCGGGACTTGGGTTCTAACCTGTTGCCT (site ACCGTGACTAG)”, the “recombinant barcode read abundance (log10)” value falls from 1.14 to 0.

Going from “ACCGGTACTTGGGTTCTAACCTGTTGCCT (site ACCAGTACTAG)” to “ACCGGTACTTGGGTTCTAACCTGTTGCCT (site ACCCGTACTAG)”, the “recombinant barcode read abundance (log10)” value falls from 0.408 to 0.014.

First: ACCGGTACTTGGGTTCTAACCTGTTGCCT (site ACCGGTACTAG)
Second: ACCGGTACTTGGGTTCTAACCTGTTGCCT (site ACCTGTACTAG)
The “recombinant barcode read abundance (log10)” value of the first is higher: 0.508 for the first, 0.0135 for the second.

Going from “ACCTAACCTTGGGTTCTAACCTGTTGCAG (site ACCTAACCTCT)” to “ACCTAACCTTGGGTTCTAACCTGTTGCAG (site TCCTAACCTCA)”, the “recombinant barcode read abundance (log10)” value falls from 1.22 to 0.0355.

First: ACCTGTCCTTGGGTTCTAACCTGTTGCCT (site ACCTGACCTAG)
Second: ACCTGTCCTTGGGTTCTAACCTGTTGCCT (site ACCTGCCCTAG)
The “recombinant barcode read abundance (log10)” value of the first is higher: 0.269 for the first, 0.0321 for the second.

Compared with “ACCTGTCCTTGGGTTCTAACCTGTTGCCT (site ACCTGGCCTAG)”, “ACCTGTCCTTGGGTTCTAACCTGTTGCCT (site ACCTGTCCTAG)” is higher in “recombinant barcode read abundance (log10)” value: 0.173 for the first, 0.986 for the second.

“ACCTTAACTTGGGTTCTAACCTGTTGCCT (site ACCTTAACTAG)” and “ACCTTAACTTGGGTTCTAACCTGTTGCCT (site ATCTCAACTAG)” are within 0.2 log units of each other in “recombinant barcode read abundance (log10)” value: 0.166 for the first, 0 for the second.

First: ACCTTGCCTTGGGTTCTAACCTGTTGCTA (site ACCTTGCCTTA)
Second: ACCTTGCCTTGGGTTCTAACCTGTTGCTA (site TGGAGAGCTCT)
The “recombinant barcode read abundance (log10)” value of the first is higher: 0.478 for the first, 0.0461 for the second.

With “ACGAACGCTTGGGTTCTAACCTGTTGCCT (site ACGAACGCTAG)” the “recombinant barcode read abundance (log10)” value was 1.64.
